Reference: DBAASP
Values after ≈ are worked out from the molar mass of the structure shown.

Columns and labels:
Experiment in all cases: ≥ marks a high value that may be exact or a test limit, other limits are often not marked, values filed in µg/mL are converted to µM
[1] = system: Escherichia coli BW25113
[2] = system: Acinetobacter baumannii ATCC 19606
[3] = system: Escherichia coli ATCC 25922
[4] = system: Klebsiella pneumoniae ATCC 700603
[5] = system: Pseudomonas aeruginosa ATCC 27853
[6] = system: Escherichia coli BW25113 ΔsbmA
[7] = system: Staphylococcus aureus ATCC 25923
[8] = system: Acinetobacter baumannii 9931
[9] = system: Pseudomonas aeruginosa ATCC 9027
[10] = system: Escherichia coli 780
[11] = system: Escherichia coli 804
[12] = system: Pseudomonas aeruginosa 50
[13] = system: Pseudomonas aeruginosa 73
[14] = system: Staphylococcus aureus 113
[15] = system: Staphylococcus aureus 75
[16] = system: Bacillus subtilis ATCC 23857
[17] = system: Acinetobacter baumannii 97830
[18] = system: Staphylococcus epidermidis ATCC 12228
[19] = system: Staphylococcus aureus ATCC 29213
[20] = system: Escherichia coli DH5alpha
[21] = system: Zymomonas mobilis ATCC 10988
[22] = system: Klebsiella pneumoniae ATCC 700603(ImiR)
[23] = system: Escherichia coli ATCC 25922(GenR)
[24] = system: Klebsiella pneumoniae ATCC 700603(GenR)
[25] = system: Escherichia coli ATCC 25922(ImiR)
[26] = system: Acinetobacter baumannii ATCC 19606(RifR)
[27] = system: Escherichia coli ATCC 25922(CipR)
[28] = system: Acinetobacter baumannii ATCC 19606(CipR)
[29] = system: Pseudomonas aeruginosa ATCC 27853(ImiR)
[30] = system: Pseudomonas aeruginosa ATCC 27853(GenR)
[31] = system: Escherichia coli ATCC 25922(RifR)
[32] = system: Pseudomonas aeruginosa ATCC 27853(RifR)
[33] = system: Acinetobacter baumannii ATCC 19606(GenR)
[34] = system: Klebsiella pneumoniae ATCC 700603(CipR)
[35] = system: Klebsiella pneumoniae ATCC 700603(RifR)
[36] = system: Acinetobacter baumannii ATCC 19606(ImiR)
[37] = system: Pseudomonas aeruginosa ATCC 27853(CipR)

MIC [2] [µM] | MIC [4] [µM] | MIC [5] [µM] | MIC [8] [µM] | MIC [9] [µM] | MIC [10] [µM] | MIC [11] [µM] | MIC [12] [µM] | MIC [14] [µM] | MIC [15] [µM] | MIC [16] [µM] | MIC [18] [µM] | MIC [19] [µM] | Compound | other results
32 (≈ 67.4 µg/mL) | 16 (≈ 33.7 µg/mL) | > 64 | – | – | – | – | – | – | – | – | – | – | CC[C@H](C)[C@H](NC(=O)[C@H](CCCN=C(N)N)NC(=O)[C@@H](N)Cc1c[nH]c2ccccc12)C(=O)N[C@@H](CCCN=C(N)N)C(=O)N1CCC[C@H]1C(=O)N[C@@H](CCCN=C(N)N)C(=O)N1CCC[C@H]1C(=O)N1CCC[C@H]1C(=O)N[C@@H](CCCN=C(N)N)C(=O)N[C@@H](CC(C)C)C(=O)N1CCC[C@H]1C(=O)N[C@@H](CCCN=C(N)N)C(=O)N1CCC[C@H]1C(=O)N[C@@H](CCCN=C(N)N)C(=O)N1CCC[C@H]1C(=O)N[C@@H](CCCN=C(N)N)C(=O)O [WRIRPRPPRLPRPRPR] | MIC [1]: 1 µM (≈ 2.11 µg/mL); MIC [3]: 1 µM (≈ 2.11 µg/mL); MIC [6]: 12 µM (≈ 25.3 µg/mL); MIC [7]: > 64 µM
128 (≈ 172 µg/mL) | > 128 | 128 (≈ 172 µg/mL) | ≥ 64 | 128 (≈ 172 µg/mL) | ≥ 32 | ≥ 64 | ≥ 128 | 16 (≈ 21.5 µg/mL) | 16 (≈ 21.5 µg/mL) | 8 (≈ 10.7 µg/mL) | 8 (≈ 10.7 µg/mL) | 32 (≈ 43 µg/mL) | C[C@H](N)C(=O)N[C@@H](CCCN=C(N)N)C(=O)N[C@@H](CCCN=C(N)N)C(=O)N[C@@H](Cc1c[nH]c2ccccc12)C(=O)N[C@@H](Cc1c[nH]c2ccccc12)C(=O)N[C@@H](Cc1c[nH]c2ccccc12)C(=O)N[C@@H](CCCN=C(N)N)C(=O)N[C@@H](CCCN=C(N)N)C(=O)N[C@@H](C)C(N)=O [ARRWWWRRA] | MIC [13]: ≥ 128 µM; MIC [17]: ≥ 128 µM
– | – | – | – | – | – | – | – | – | – | – | – | – | CC[C@H](C)[C@H](NC(=O)[C@H](CCCN=C(N)N)NC(=O)[C@H](CCC(N)=O)NC(=O)[C@@H](NC(=O)[C@@H](NC(=O)[C@H](CCCN=C(N)N)NC(=O)[C@H](CCCCN)NC(=O)[C@@H](N)CC(C)C)[C@@H](C)CC)C(C)C)C(=O)N[C@@H](CCCCN)C(=O)N[C@@H](CC(=O)O)C(=O)N[C@@H](Cc1ccccc1)C(=O)N[C@@H](CC(C)C)C(=O)N[C@@H](CCCN=C(N)N)C(N)=O [LKRIVQRIKDFLR] | MIC [20]: ≥ 119 µM; MIC [21]: ≥ 119 µM
8 (≈ 15.2 µg/mL) | 16 (≈ 30.4 µg/mL) | 4 (≈ 7.6 µg/mL) | 8 (≈ 15.2 µg/mL) | 4 (≈ 7.6 µg/mL) | 8 (≈ 15.2 µg/mL) | 16 (≈ 30.4 µg/mL) | 4 (≈ 7.6 µg/mL) | 2 (≈ 3.8 µg/mL) | 4 (≈ 7.6 µg/mL) | 2 (≈ 3.8 µg/mL) | 4 (≈ 7.6 µg/mL) | 4 (≈ 7.6 µg/mL) | NCCCC[C@H](NC(=O)[C@H](CCCN=C(N)N)NC(=O)[C@H](Cc1c[nH]c2ccccc12)NC(=O)[C@H](CCCCN)NC(=O)[C@H](CCCN=C(N)N)NC(=O)[C@H](Cc1c[nH]c2ccccc12)NC(=O)[C@H](CCCCN)NC(=O)[C@H](CCCN=C(N)N)NC(=O)[C@H](Cc1c[nH]c2ccccc12)NC(=O)[C@H](CCCCN)NC(=O)[C@H](CCCN=C(N)N)NC(=O)[C@@H](N)Cc1c[nH]c2ccccc12)C(N)=O [WRKWRKWRKWRK] | MIC [22]: 16 µM (≈ 30.4 µg/mL); MIC [23]: 8 µM (≈ 15.2 µg/mL); MIC [24]: ≥ 32 µM; MIC [25]: 16 µM (≈ 30.4 µg/mL); MIC [26]: 8 µM (≈ 15.2 µg/mL); MIC [27]: 8 µM (≈ 15.2 µg/mL); MIC [28]: 16 µM (≈ 30.4 µg/mL); MIC [29]: 8 µM (≈ 15.2 µg/mL); MIC [30]: ≥ 32 µM; MIC [31]: 16 µM (≈ 30.4 µg/mL); MIC [32]: 4 µM (≈ 7.6 µg/mL); MIC [33]: 16 µM (≈ 30.4 µg/mL); MIC [34]: ≥ 32 µM; MIC [35]: 16 µM (≈ 30.4 µg/mL); MIC [36]: 16 µM (≈ 30.4 µg/mL); MIC [37]: 4 µM (≈ 7.6 µg/mL)
